Experimental data as given in US8790712B2, “Constitutional function-improving agents” (Cosmo Oil Co., Ltd., priority 2004, dated 2014).

Experiments:
CD4-CD8+ cells = assay: Subset test of lymphocytes from thymus (Example 2); type: in vivo, mouse; details: 10 mg/kg orally once a day for 7 days
Procedure: Mice (35 to 45 weeks old, BALB/cAJc1) preliminary raised for 1 week were injected with 10 mg of ALA hydrochloride per 1 kg mouse body weight once a day for 7 days continuously. ALA hydrochloride was adjusted to a concentration of […] with distilled water and orally administered to the mice. After the test, each mouse was sacrificed and the weight of its thymus and the number of cells were measured. In addition, a subset test of lymphocytes was carried out using the obtained cells. The test was carried out using 5 mice per 1 plot, and their values were shown by average value. […] Also, since the cell of CD4-CD8+ was increased in the ALA-treated plot based on the subset test, it was confirmed that the cytotoxic T cell increases after its future differentiation, so that its immunological function improving ability was shown (Table 3). In addition, photographs of the thymus of untreated plot (un-administered group) and the thymus of ALA-treated plot (ALA-treated group) are shown in FIG. 1.

[1] = system: porphobilinogen deaminase (PBGD); assay: PBGD activity of blood (Example 5); type: in vivo, mouse; details: male mice, 10 mg/kg orally once a day for 7 days
Procedure: Mice (35 to 45 weeks old, BALB/cAJc1) preliminary raised for 1 week were injected with 10 mg of ALA hydrochloride per 1 kg mouse body weight once a day for 7 days continuously. ALA hydrochloride was adjusted to a concentration of […] with distilled water and orally administered to the mice. After the test, each mouse was sacrificed to collect mouse blood, and ALA dehydrase (ALAD) activity (the activity of ALA in which it is dimerized and thereby forms porphobilinogen (hereinafter referred to as “PBG”) as one molecule pyrrole substance) and porphobilinogen deaminase (PBGD) activity (the activity to convert from PBG to hydroxymethylbilane) per 1 ml of the blood were measured. […] To 0.02 ml of heparin-treated mouse whole blood, 0.33 ml of distilled water was added, the mixture was adjusted to a total volume of 0.5 ml by adding thereto 0.05 ml of 0.5 M Na-phosphate buffer (pH 6.4), 0.05 ml of 0.1 M DTT (containing 1 mM ZnSO4) and 0.05 ml of 50 mM ALA hydrochloride and was kept at 37° C. for 30 minutes, the reaction was stopped by adding 0.5 ml of 1 M trichloroacetic acid, and then Ehrlich reagent was added to a supernatant after centrifugation at 3000 rpm in the same volume, and precisely 10 minutes thereafter, absorbance at 553 nm, which is a characteristic absorbance of the compound formed by the reaction of Ehrlich reagent with PBG, was measured (OD) using a spectrophotometer. […]

[2] = system: Mice (35 to 45 weeks old, BALB/cAJc1); assay: Rotary exercise quantity measuring device, rotations within 16 hours (Example 6); type: in vivo, mouse
Procedure: Mice (35 to 45 weeks old, BALB/cAJc1) preliminary raised for 1 week were injected with 10 mg of ALA hydrochloride per 1 kg mouse body weight once a day for 7 days continuously. ALA hydrochloride was adjusted to a concentration of […] with distilled water and orally administered to the mice. The mouse was put into a rotary exercise quantity measuring device (rotating basket: 200 mm in diameter×50 mm in width, raising basket: W 90 mm×D 220 mm×H 90 mm, manufactured by Shinano Seisakusho) and the number of rotation within 16 hours was measured before and after the test. The test was carried out using 1 mouse per 1 rotary exercise quantity measuring device, and carried out on female mice using untreated 5 animals and ALA-treated 5 animals as 1 plot, and the values were shown by the average value. It was confirmed that the rotation quantity was large and the exercise capacity was improved in the plot treated with ALA.

[3] = system: γ-GTP (gamma glutamyl transpeptidase); assay: Blood plasma γ-GTP of broiler chicks (Example 9); type: in vivo, chick
Source text: A total of 300 chicks, 150 chicks for females and males respectively, of broiler primary chicks (Chunky) were purchased. After the purchase, chicks having abnormality (weakness or dwarf) were excluded, and the rest were equipped with wing belts for individual identification and their body weights were individually measured. […] Using 15 female or male chicks (30 chicks in total) as 1 group, they were put into a Chick Gird arranged in a closed type barn, and warmed by arranging an infrared ray lamp for animal use. The Chick Gird was expanded along with the growth of chicks. The feed and drinking water were constantly provided. The test groups were set to a total of 3 groups containing a control group in which a control feed (a standard testing feed SDB No. 1 was used from the neonatal to 3 weeks old, or a standard testing feed SDB No. 2 from 3 weeks old to 7 weeks old, (both manufactured by Nippon Formula Feed Mfg Co., Ltd., Table 9) without adding ALA hydrochloride is provided, and 2 test groups of ALA-10 ppm treated group and ALA-50 ppm treated group in which 10 ppm or 50 ppm of ALA hydrochloride is added to the feed and provided, and 3 repetition plots were arranged for each group. The number of chicks to be tested in each test group was as shown in Table 10. The test period was set to 7 weeks (7 weeks old) from the neonatal (start of the added feed provision), and total body weight of females or males was measured for each repetition plot at the time of the neonatal and at intervals of 1 week thereafter. In addition, about 2 ml of blood was collected from a brachial vein (basilic vein) of each of 18 chicks (3 female or male chicks/repetition) of each group at 3 weeks old and 7 weeks old, and about 1.5 ml thereof was subjected to a coagulation preventing treatment using heparin-lithium salt and then the blood plasma was separated to inspect the items of LDH, GOT (AST), γ-GTP, ALP, total protein, albumin, globulin, total cholesterol, triglyceride, glucose, uric acid, total bilirubin, uric acid, creatinine, calcium and inorganic phosphorus.

[4] = within 16 hours, after 7 days of 10 mg/kg oral dosing
[5] = within 16 hours, before the 7 days of 10 mg/kg oral dosing

Structure (SMILES): NCC(=O)CCC(=O)O [ALA, 5-aminolevulinic acid]
- CD4−CD8+ (%) (CD4-CD8+ cells; female mice): 3.25%
- CD4−CD8+ (%) (CD4-CD8+ cells; male mice): 5.55%
- PBGD activity [1]: 67.36 nmol URO/ml RBC/h
- Increasing ratio before and after the test (%) ([2]; rotary exercise, 10 mg/kg orally once a day for 7 days): 125%
- Distance (m), after the test [2, 4]: 8889 m
- Number of rotation, after the test [2, 4]: 14155
- Distance (m), before the test [2, 5]: 7095 m
- Number of rotation, before the test [2, 5]: 11297
- γ-GTP (IU/l) ([3]; 10 ppm in feed, 3 weeks old): 29.7 IU/l
- γ-GTP (IU/l) ([3]; 10 ppm in feed, 7 weeks old): 29.7 IU/l
- γ-GTP (IU/l) ([3]; 50 ppm in feed, 3 weeks old): 30.0 IU/l
- γ-GTP (IU/l) ([3]; 50 ppm in feed, 7 weeks old): 32.7 IU/l
